Data taken from PubChem BioAssay AID1919002 (Molecular Pharmacology Branch, DTP, NCI, 2023).

Test system: 743489-274-T-PDC complex spheroid growth
Experiment: Anticancer human tumor 743489-274-T-PDC patient-derived renal cell carcinoma cell line growth inhibition [AhR]
Settings: for IC50: curve of first compound; for viability, T/C: stronger effect = lower value; active = viability on the fitted dose curve at most 10% of control; inactive = the rest
Summary of the method: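 Complex tumor spheroids co-cultured with HUVEC and human MSC stroma; AhR antagonists tested in combination with standard-of-care and investigational agents. Top concentration at or near clinical Cmax (else 10 microM), half-log dilutions; growth expressed as percent test/control.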

[1] = second compound 0.1 µM, first compound 0.000949 µM
[2] = second compound 0.1 µM, first compound 0.003 µM
[3] = second compound 0.1 µM, first compound 0.00949 µM
[4] = second compound 0.1 µM, first compound 0.03 µM
[5] = second compound 0.1 µM, first compound 0.0949 µM
[6] = second compound 0.1 µM, first compound 0.3 µM
[7] = second compound 0.316 µM, first compound 0.000949 µM
[8] = second compound 0.316 µM, first compound 0.003 µM
[9] = second compound 0.316 µM, first compound 0.00949 µM
[10] = second compound 0.316 µM, first compound 0.03 µM
[11] = second compound 0.316 µM, first compound 0.0949 µM
[12] = second compound 0.316 µM, first compound 0.3 µM
[13] = second compound 1 µM, first compound 0.000949 µM
[14] = second compound 1 µM, first compound 0.003 µM
[15] = second compound 1 µM, first compound 0.00949 µM
[16] = second compound 1 µM, first compound 0.03 µM
[17] = second compound 1 µM, first compound 0.0949 µM
[18] = second compound 1 µM, first compound 0.3 µM
[19] = second compound 3.16 µM, first compound 0.000949 µM
[20] = second compound 3.16 µM, first compound 0.003 µM
[21] = second compound 3.16 µM, first compound 0.00949 µM
[22] = second compound 3.16 µM, first compound 0.03 µM
[23] = second compound 3.16 µM, first compound 0.0949 µM
[24] = second compound 3.16 µM, first compound 0.3 µM
[25] = second compound 10 µM, first compound 0.000949 µM
[26] = second compound 10 µM, first compound 0.003 µM
[27] = second compound 10 µM, first compound 0.00949 µM
[28] = second compound 10 µM, first compound 0.03 µM
[29] = second compound 10 µM, first compound 0.0949 µM
[30] = second compound 10 µM, first compound 0.3 µM
[31] = second compound 0.1 µM, first compound 0.0316 µM
[32] = second compound 0.1 µM, first compound 0.1 µM
[33] = second compound 0.1 µM, first compound 0.316 µM
[34] = second compound 0.1 µM, first compound 1 µM
[35] = second compound 0.1 µM, first compound 3.16 µM
[36] = second compound 0.1 µM, first compound 10 µM
[37] = second compound 0.316 µM, first compound 0.0316 µM
[38] = second compound 0.316 µM, first compound 0.1 µM
[39] = second compound 0.316 µM, first compound 0.316 µM
[40] = second compound 0.316 µM, first compound 1 µM
[41] = second compound 0.316 µM, first compound 3.16 µM
[42] = second compound 0.316 µM, first compound 10 µM
[43] = second compound 1 µM, first compound 0.0316 µM
[44] = second compound 1 µM, first compound 0.1 µM
[45] = second compound 1 µM, first compound 0.316 µM
[46] = second compound 1 µM, first compound 1 µM
[47] = second compound 1 µM, first compound 3.16 µM
[48] = second compound 1 µM, first compound 10 µM
[49] = second compound 3.16 µM, first compound 0.0316 µM
[50] = second compound 3.16 µM, first compound 0.1 µM
[51] = second compound 3.16 µM, first compound 0.316 µM
[52] = second compound 3.16 µM, first compound 1 µM
[53] = second compound 3.16 µM, first compound 3.16 µM
[54] = second compound 3.16 µM, first compound 10 µM
[55] = second compound 10 µM, first compound 0.0316 µM
[56] = second compound 10 µM, first compound 0.1 µM
[57] = second compound 10 µM, first compound 0.316 µM
[58] = second compound 10 µM, first compound 1 µM
[59] = second compound 10 µM, first compound 3.16 µM
[60] = second compound 10 µM, first compound 10 µM
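Also: spheroids exposed to agents for 7 days before readout.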
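For viability, T/C in this document: 100% = DMSO vehicle control wells.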

CC(C)CC(NC(=O)C(Cc1ccccc1)NC(=O)c1cnccn1)B(O)O (stereo not given) + Cc1cncc(-c2nc(NCCc3c[nH]c4ccccc34)c3ncn(C(C)C)c3n2)c1
0.0209 µM: IC50 (second compound 3.16 µM)
inactive: viability, T/C [1] 94.6% | viability, T/C [2] 96.3% | viability, T/C [3] 106% | viability, T/C [4] 75.8% | viability, T/C [5] 16.6% | viability, T/C [6] 11.4% | viability, T/C [7] 98.8% | viability, T/C [8] 96.9% | viability, T/C [9] 108% | viability, T/C [10] 45.2% | viability, T/C [11] 18.4% | viability, T/C [12] 10.7% | viability, T/C [13] 99.8% | viability, T/C [14] 103% | viability, T/C [15] 93% | viability, T/C [16] 30.3% | viability, T/C [17] 17.6% | viability, T/C [18] 8.63% | viability, T/C [19] 107% | viability, T/C [20] 107% | viability, T/C [21] 102% | viability, T/C [22] 25.9% | viability, T/C [25] 124% | viability, T/C [26] 113% | viability, T/C [27] 73.2%
active: viability, T/C [23] 13.1% | viability, T/C [24] 4.96% | viability, T/C [28] 2.6% | viability, T/C [29] 1.14% | viability, T/C [30] 0.75%
0.021 µM: IC50 (second compound 1 µM)
0.0493 µM: IC50 (second compound 0.1 µM)
0.0272 µM: IC50 (second compound 0.316 µM)
0.0139 µM: IC50 (second compound 10 µM)

CCc1c2c(nc3ccc(O)cc13)-c1cc3c(c(=O)n1C2)COC(=O)[C@]3(O)CC + Cc1cncc(-c2nc(NCCc3c[nH]c4ccccc34)c3ncn(C(C)C)c3n2)c1
> 0.3 µM: IC50 (second compound 0.1 µM) | IC50 (second compound 0.316 µM) | IC50 (second compound 1 µM) | IC50 (second compound 3.16 µM) | IC50 (second compound 10 µM)
inactive: viability, T/C [1] 106% | viability, T/C [2] 103% | viability, T/C [3] 97.1% | viability, T/C [4] 89.1% | viability, T/C [5] 79.4% | viability, T/C [6] 76.6% | viability, T/C [7] 98.8% | viability, T/C [8] 95% | viability, T/C [9] 98.5% | viability, T/C [10] 82.2% | viability, T/C [11] 69.5% | viability, T/C [12] 64.6% | viability, T/C [13] 102% | viability, T/C [14] 106% | viability, T/C [15] 110% | viability, T/C [16] 79.9% | viability, T/C [17] 94.8% | viability, T/C [18] 66.6% | viability, T/C [19] 113% | viability, T/C [20] 102% | viability, T/C [21] 98.6% | viability, T/C [22] 80.7% | viability, T/C [23] 73.1% | viability, T/C [24] 73.9% | viability, T/C [25] 131% | viability, T/C [26] 135% | viability, T/C [27] 128% | viability, T/C [28] 102% | viability, T/C [29] 95% | viability, T/C [30] 68.4%

COc1cc(Nc2ncc3c(n2)-c2ccc(Cl)cc2C(c2c(F)cccc2OC)=NC3)ccc1C(=O)O + Cc1cncc(-c2nc(NCCc3c[nH]c4ccccc34)c3ncn(C(C)C)c3n2)c1
> 10 µM: IC50 (second compound 0.1 µM) | IC50 (second compound 0.316 µM) | IC50 (second compound 1 µM) | IC50 (second compound 3.16 µM) | IC50 (second compound 10 µM)
inactive: viability, T/C [31] 94.2% | viability, T/C [32] 103% | viability, T/C [33] 84.6% | viability, T/C [34] 99.8% | viability, T/C [35] 93.7% | viability, T/C [36] 91.8% | viability, T/C [37] 97.7% | viability, T/C [38] 85% | viability, T/C [39] 94% | viability, T/C [40] 85.1% | viability, T/C [41] 85% | viability, T/C [42] 78.9% | viability, T/C [43] 99% | viability, T/C [44] 95.2% | viability, T/C [45] 95.9% | viability, T/C [46] 86% | viability, T/C [47] 95.3% | viability, T/C [48] 82.4% | viability, T/C [49] 107% | viability, T/C [50] 98% | viability, T/C [51] 96.1% | viability, T/C [52] 107% | viability, T/C [53] 90.1% | viability, T/C [54] 98.9% | viability, T/C [55] 119% | viability, T/C [56] 126% | viability, T/C [57] 101% | viability, T/C [58] 76.8% | viability, T/C [59] 79.4% | viability, T/C [60] 85.8%

Nc1ccccc1NC(=O)c1ccc(CNC(=O)OCc2cccnc2)cc1 + Cc1cncc(-c2nc(NCCc3c[nH]c4ccccc34)c3ncn(C(C)C)c3n2)c1
3.12 µM: IC50 (second compound 0.316 µM)
2.4 µM: IC50 (second compound 1 µM)
9.62 µM: IC50 (second compound 10 µM)
inactive: viability, T/C [31] 104% | viability, T/C [32] 92.7% | viability, T/C [33] 86.5% | viability, T/C [34] 77.7% | viability, T/C [35] 54.2% | viability, T/C [36] 36.6% | viability, T/C [37] 92.2% | viability, T/C [38] 93.1% | viability, T/C [39] 89.4% | viability, T/C [40] 74% | viability, T/C [41] 50.1% | viability, T/C [42] 36.3% | viability, T/C [43] 88.5% | viability, T/C [44] 84.1% | viability, T/C [45] 87.2% | viability, T/C [46] 73.8% | viability, T/C [47] 42.5% | viability, T/C [48] 29.9% | viability, T/C [49] 95.5% | viability, T/C [50] 91.5% | viability, T/C [51] 88.7% | viability, T/C [52] 78.5% | viability, T/C [53] 61.3% | viability, T/C [54] 44.3% | viability, T/C [55] 102% | viability, T/C [56] 102% | viability, T/C [57] 106% | viability, T/C [58] 91.3% | viability, T/C [59] 84.6% | viability, T/C [60] 48.2%
6.83 µM: IC50 (second compound 3.16 µM)
4.64 µM: IC50 (second compound 0.1 µM)

O=C(C=Cc1cccc(S(=O)(=O)Nc2ccccc2)c1)NO + Cc1cncc(-c2nc(NCCc3c[nH]c4ccccc34)c3ncn(C(C)C)c3n2)c1
> 10 µM: IC50 (second compound 0.1 µM) | IC50 (second compound 0.316 µM) | IC50 (second compound 1 µM) | IC50 (second compound 3.16 µM) | IC50 (second compound 10 µM)
inactive: viability, T/C [31] 88.3% | viability, T/C [32] 87.7% | viability, T/C [33] 85.9% | viability, T/C [34] 77.5% | viability, T/C [35] 69.1% | viability, T/C [36] 51.4% | viability, T/C [37] 91.6% | viability, T/C [38] 95% | viability, T/C [39] 82.4% | viability, T/C [40] 72.6% | viability, T/C [41] 66.6% | viability, T/C [42] 52.4% | viability, T/C [43] 98.1% | viability, T/C [44] 94.3% | viability, T/C [45] 88.4% | viability, T/C [46] 70.6% | viability, T/C [47] 67.5% | viability, T/C [48] 52.7% | viability, T/C [49] 102% | viability, T/C [50] 104% | viability, T/C [51] 94% | viability, T/C [52] 82% | viability, T/C [53] 73.1% | viability, T/C [54] 54.6% | viability, T/C [55] 114% | viability, T/C [56] 118% | viability, T/C [57] 120% | viability, T/C [58] 102% | viability, T/C [59] 78% | viability, T/C [60] 68.1%

O=C(c1cc(Cc2n[nH]c(=O)c3ccccc23)ccc1F)N1CCN(C(=O)C2CC2)CC1 + Cc1cncc(-c2nc(NCCc3c[nH]c4ccccc34)c3ncn(C(C)C)c3n2)c1
> 10 µM: IC50 (second compound 0.1 µM) | IC50 (second compound 0.316 µM) | IC50 (second compound 1 µM) | IC50 (second compound 3.16 µM) | IC50 (second compound 10 µM)
inactive: viability, T/C [31] 91.6% | viability, T/C [32] 96.4% | viability, T/C [33] 99% | viability, T/C [34] 88.3% | viability, T/C [35] 86.1% | viability, T/C [36] 85.6% | viability, T/C [37] 87.1% | viability, T/C [38] 84.4% | viability, T/C [39] 94.2% | viability, T/C [40] 86.2% | viability, T/C [41] 82.1% | viability, T/C [42] 88.4% | viability, T/C [43] 98.8% | viability, T/C [44] 99.9% | viability, T/C [45] 94.5% | viability, T/C [46] 93.2% | viability, T/C [47] 89.9% | viability, T/C [48] 85.4% | viability, T/C [49] 93.3% | viability, T/C [50] 102% | viability, T/C [51] 100% | viability, T/C [52] 90% | viability, T/C [53] 85.7% | viability, T/C [54] 95.1% | viability, T/C [55] 104% | viability, T/C [56] 102% | viability, T/C [57] 111% | viability, T/C [58] 102% | viability, T/C [59] 105% | viability, T/C [60] 103%
